Results as given in patent US20190022101A1, “Treating Cochlear Synaptopathy” (Massachusetts Eye and Ear Infirmary, priority 2016, published 2019).
“Also recorded” adds a separate entry of the source.

Legend:
[1] = test system: isolated SGNs and denervated organ of Corti; assay: Afferent synaptogenesis in co-culture of isolated SGNs and denervated organ of Corti; type: cell-based, mouse; settings: P4/5 CBA/CaJ co-culture 6 days, amitriptyline 0.5 uM, vs untreated controls
Method: FIGS. 4A-B show amitriptyline induced cochlear afferent synaptogenesis. Isolated SGNs and denervated organ of Corti were extracted from P4/5 CBA/CaJ cochlea, the co-cultured for 6 days (see Brugeaud et al. (2014) Dev Neurobiol. April; 74(4):457-66 and Tong et al. (2013) J Assoc Res Otolaryngol. 14(3):321-9 for detailed methods). In some co-cultured explants, amitriptyline (AT; 0.5 uM) was added (4A, 4B). After culture, explants were fixed and immunostained with antibodies against neurofilament (green), CtBP2 (blue) and PSD-95 (red). Confocal images were taken in the IHC region. Newly generated afferent synapses were identified by juxtaposed CtBP2/PSD-95 puncta (yellow arrows).
The afferent innervation of hair cells is removed by physical ablation. At postnatal day four to six (P4-P6), the cochlea is dissected and transferred to Petri dishes. The inner and outer hair cells and surrounding supporting cells of the organ of Corti are separated from the SGN at the greater epithelial ridge with a surgical micro-blade, to obtain an intact sensory epithelium devoid of neurons. […] Formation of new synapses and growth of the fibers to contact hair cells is assessed by immunohistochemistry. […]

[2] = test system: IHC synapses and spiral ganglion cells; assay: Cochlear synapse and ganglion cell counts in vivo after synaptopathic noise exposure; design: species or system CBA/CaJ mice; settings: for synapses / cochlear synaptic counts: one year (52 wk) after synaptopathic noise exposure
Method: (§1) Animals: Experiments were carried out in CBA/CaJ mice. CBA/CaJ is a useful reference for studies of both noise-induced and age-related hearing loss and to cochlear injury. […] J Assoc Res Otolaryngol. 2014 October; 15(5):721-38). With respect to aging, after normalizing for cochlear place and relative lifespan, the pace of age-related threshold elevation and SGN loss in CBA/CaJ looks remarkably like that seen in human data (Sergeyenko et al. (2013)). Thus, the strain is particularly appropriate to provide the optimization of bioassays and treatments for application to the human.
(§2) Noise Exposure: Noise exposure stimuli were generated by a waveform generator (Tucker-Davis WG1), bandpass filtered with >60 dB/octave slope (Frequency Devices), amplified (Crown D-75) and delivered (JBL compression driver) through an exponential horn extending into a small, reverberant exposure chamber. Exposures were delivered to awake animals held within small cells of a subdivided cage, one animal/cell, suspended directly below the horn of the sound-delivery loudspeaker. Noise calibration to target SPL was performed immediately before each exposure session. Sound pressure levels varied by <1 dB across all cells (Kujawa et al. (2006); Kujawa et al. (2009)).
Cochlear Tissue Processing and Analysis: Techniques for cochlear fixation, dissecting and immunostaining are described in prior publications, as are techniques for quantification of pre- and post-synaptic structures in highpower confocal z-stacks (Kujawa et al. (2009); Sergeyenko et al. (2013)). Briefly, deeply anesthetized mice were intracardially perfused, both cochleae were extracted, and the round and oval windows opened to allow intra-labyrinthine perfusion of the same fixative. One cochlea was processed for immunostained cochlear whole mounts and the other for plastic embedding. We triple stained for pre-synaptic ribbons (CtBP2), post-synaptic glutamate receptors (GluA2) and/or cochlear nerve terminals (Na+K+ATPase); myosin VIIA aided hair cell visualization. […] High-power, confocal image stacks were obtained at evenly spaced locations along the cochlear spiral, including regions of lesion focus. Given the stereotyped sectioning angle, these locations correspond roughly to the 6, 12, 22, 32, 45 and 64 kHz regions. At each locus, high-NA (1.3) objectives were used to obtain a complete confocal z-stack through the synaptic zones of all IHCs and OHCs. In each field, hair cells were counted under DIC optics, and expressed pre- and post-synaptic elements on a per hair cell basis. For afferent innervation, synaptic ribbons were counted in IHC areas, and percentages of ribbons with closely apposing glutamate receptor patches or terminals assessed, aided by the use of Amira software to enable a true 3-D analysis of the volumes of immunostained structures, and custom software to isolate the voxel space around each structure of interest.
For quantification of spiral ganglion cells, cochleae were additionally postfixed, decalcified and osmicated and embedded in EPON in a stereotyped orientation. Plastic-embedded, osmium-stained sections (10 μm) were cut in a roughly horizontal plane parallel to the modiolus. In each case, ganglion cell counts were made in the section precisely in the middle of each half turn, where the cutting angle is perpendicular to the spiral of Rosenthal's canal, at regions corresponding to the synapse counts. In each selected section, the area of Rosenthal's canal is traced, the number of ganglion cells within was counted, including only those cells with a visible nucleus and nucleolus, and the cell density is computed (cells/10,000 μm^2). All morphological analyses were performed by an individual having no knowledge of animal age or treatment, with subsets double counted by a second individual as a check for consistency. […]

cochlear function = assay: Cochlear function (ABR Wave 1, DPOAE) in vivo after synaptopathic noise exposure; design: species or system CBA/CaJ mice; settings: vs saline-treated controls; for ABR Wave 1 amplitudes (neural response amplitudes): 52 wk / one year post noise
Method: as §1, §2
Cochlear Function: Detailed techniques have been described in previous publications (Kujawa et al. (2006); Kujawa et al. (2009); Sergeyenko et al. (2013)). […]
Effects of noise on the cochlea and its interaction with age were assessed physiologically using outer hair cell-based distortion product otoacoustic emissions (DPOAEs) and neural-based auditory brainstem responses (ABRs, specifically, wave 1). Response thresholds and suprathreshold response growth functions were recorded in ketamine/xylazine-anesthetized mice. DPOAEs were measured in response to f1 and f2 primaries (f2/f1=1.2, f2=ABR test frequencies; L2=L1−10 dB). […] ABRs were recorded with 5 ms tone-pips (0.5 msec rise/fall, alternating polarity) for the same range of frequencies. Wave 1 thresholds and wave peak ratios were determined by custom offline analysis routines.

Spiral ganglion neurons = assay: Spiral ganglion neurite growth in cultured explants; type: cell-based, mouse; settings: P4 CBA/CaJ SGN explants, two days culture, neurofilament stain; imipramine 1 uM or 5 uM, BDNF 50 ng/ml; vs control
Method: Spiral ganglion neurons were isolated from P4 CBA/CaJ mouse cochlea and cultured with DMEM/F12 supplemented with N2 and B27 in a 37° C. incubator with 5% CO2 (control conditions)(FIG. 3A). For drug treatment, BDNF (50 ng/ml) (FIG. 3C) or imipramine (1 uM or 5 uM)(FIG. 3B or FIG. 3D) was added. Two days after culture, explants were immunostained with a neurofilament antibody.

Row | Molecule | newly generated afferent synapses (juxtaposed CtBP2/PSD-95 puncta), synapse counts [1] | newly generated afferent synapses (juxtaposed CtBP2/PSD-95 puncta), synapse counts ([1]; listed as AT) | period of post-drug efficacy ([2]; initial results, compared to short-lived benefit of exogenously-applied neurotrophins) | synapses / cochlear synaptic counts ([2]; vs saline-treated controls) | synapses / cochlear synaptic counts ([2]; vs saline-treated controls, listed as AT) | ganglion cell counts ([2]; one year post excitotoxic noise, vs saline-treated controls) | synapses ([2]; short post-exposure times, vs saline treated controls) | effects with a single dose of drug ([2]; single dose, in vivo (FIG. 6)) | ABR Wave 1 amplitudes (neural response amplitudes) (cochlear function) | ABR Wave 1 amplitudes (neural response amplitudes) (cochlear function; listed as AT) | DPOAE amplitudes (cochlear function; 52 wk post noise) | spiral ganglion neurite growth (Spiral ganglion neurons)
1 | CN(C)CCC=C1c2ccccc2CCc2ccccc21 [amitriptyline] | synaptogenesis; also recorded: new afferent synapses are generated | greater in AT-treated than in untreated controls | long period of post-drug efficacy | cochlear synaptic and ganglion cell counts were greater | persisting to at least one year after synaptopathic exposure | ganglion cell counts were greater | more synapses than saline treated controls | could be seen even with a single dose of drug | neural response amplitudes were larger | larger in AT-treated ears | not DPOAE amplitudes (5C) were larger | –
2 | CN(C)CCCN1c2ccccc2CCc2ccccc21 [imipramine] | – | – | – | – | – | – | – | – | – | – | – | promoted spiral ganglion neurite growth in a dose-dependent manner; also recorded: dose-responsive dendritic sprouting
3 | brain derived neurotrophic factor (protein, UniProt P23560 19-247, looked up) Neurotrophic factor BDNF …: APMKEANIRGQGGLAYPGVRTHGTLESVNGPKAGSRGLTSLADTFEHVIEELLDEDQKVRPNEENNKDADLYTSRVMLSSQVPLEPPLLFLLEEYKNYLDAANMSMRVRRHSDPARRGELSVCDSISEWVTAADKKTAVDMSGGTVTVLEKVPVSKGQLKQYFYETKCNPMGYTKEGCRGIDKRHWNSQCRTTQSYVRALTMDSKKRIGWRFIRIDTSCVCTLTIKRGR | – | – | – | – | – | – | – | – | – | – | – | promoted neurite outgrowth
